Legend:
wild type ALS protein = biological target: T1, wild type ALS protein (Oryza sativa subsp. japonica, UniProt Q6K2E8); assay: Herbicide sensitivity of partially purified wild type ALS protein (acetoin colorimetric ALS activity); format: biochemical, rice (Kinmaze); parameters: the wild type ALS protein was separated and purified in the same manner and used for the experiment; from tissue; host or cells: wild type rice (Kinmaze) cultured cells, liquid culture; ammonium sulfate, Sephadex G-25, HiTrap Q
T1 sequence (Q6K2E8 44-644): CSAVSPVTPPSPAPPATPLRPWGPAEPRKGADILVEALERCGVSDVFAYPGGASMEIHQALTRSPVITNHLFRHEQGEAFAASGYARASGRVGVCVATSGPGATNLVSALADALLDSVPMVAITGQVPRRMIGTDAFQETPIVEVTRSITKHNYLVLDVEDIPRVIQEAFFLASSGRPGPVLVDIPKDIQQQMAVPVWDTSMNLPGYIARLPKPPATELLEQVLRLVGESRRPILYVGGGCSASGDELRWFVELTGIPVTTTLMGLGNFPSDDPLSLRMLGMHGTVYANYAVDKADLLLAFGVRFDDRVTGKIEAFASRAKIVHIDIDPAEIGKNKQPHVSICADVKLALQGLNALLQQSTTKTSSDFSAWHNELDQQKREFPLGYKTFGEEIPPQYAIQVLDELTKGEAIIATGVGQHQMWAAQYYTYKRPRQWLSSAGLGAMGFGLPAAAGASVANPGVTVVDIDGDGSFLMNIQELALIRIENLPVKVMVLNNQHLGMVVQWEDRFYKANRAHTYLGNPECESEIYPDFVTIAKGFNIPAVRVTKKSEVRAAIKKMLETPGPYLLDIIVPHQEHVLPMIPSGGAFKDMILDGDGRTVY

mutant ALS protein = mutant ALS protein (Oryza sativa subsp. japonica, UniProt Q6K2E8, S627I/W548L); assay: Herbicide sensitivity of ALS partially purified from the resistant mutant (acetoin colorimetric ALS activity); format: biochemical, rice (Kinmaze); parameters: from tissue; host or cells: resistant mutant rice (Kinmaze) cultured cells, liquid culture; ammonium sulfate, Sephadex G-25, HiTrap Q
Sequence of mutant ALS protein (Q6K2E8 44-644 W548L/S627I): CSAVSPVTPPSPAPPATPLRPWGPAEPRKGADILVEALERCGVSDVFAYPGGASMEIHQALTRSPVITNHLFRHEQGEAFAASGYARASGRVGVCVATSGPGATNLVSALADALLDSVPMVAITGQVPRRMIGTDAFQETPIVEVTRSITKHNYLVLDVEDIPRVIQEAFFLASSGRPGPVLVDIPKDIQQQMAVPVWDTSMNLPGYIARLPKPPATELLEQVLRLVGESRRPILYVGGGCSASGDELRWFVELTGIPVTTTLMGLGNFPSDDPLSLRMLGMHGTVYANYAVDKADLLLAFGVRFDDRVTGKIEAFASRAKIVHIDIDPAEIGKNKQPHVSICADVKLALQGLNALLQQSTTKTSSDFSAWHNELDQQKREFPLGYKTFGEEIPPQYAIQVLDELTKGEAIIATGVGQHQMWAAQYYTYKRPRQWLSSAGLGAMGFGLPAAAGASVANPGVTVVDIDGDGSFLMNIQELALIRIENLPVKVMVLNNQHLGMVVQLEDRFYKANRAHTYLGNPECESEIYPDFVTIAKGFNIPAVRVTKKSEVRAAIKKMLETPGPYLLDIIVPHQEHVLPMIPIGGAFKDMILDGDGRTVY
Experimental: First, 200 g or more of resistant mutant was prepared by a liquid culture method (no supplementation with bispyribac-sodium), the culture having a composition as shown in Table 1 but without Gelrite. Then, about 150 g of the resistant mutant was homogenized using Hiscotron in a volume of buffer-1 [100 mM potassium phosphate buffer (pH 7.5) containing 20% (v/v) glycerol, 0.5 mM thiamin pyrophosphate (TPP), 10 μM flavin adenine dinucleotide (FAD), 0.5 mM MgCl2, and a volume of polyvinyl polypyrrolidone one-tenth that of tissue volume] 3-fold greater than tissue volume. The homogenate was filtered through nylon gauze, and then centrifuged at 15,000×g for 20 min. Ammonium sulfate was added to the centrifuged supernatant to 50% saturation, and then allowed to stand in ice for approximately 1 hour. The mixture was again centrifuged at 15,000×g for 20 min, and then the precipitated fraction was dissolved in about 30 ml of buffer-2 [10 mM Tris hydrochloric acid buffer (pH 7.5) containing 20% (v/v) glycerol, 0.5 mM TPP and 0.5 mM MgCl2]. […]
Next, the protein concentration of the crude enzyme solution was measured by the Bradford method according to the manual of Bio-Rad Protein Assay. […]
ALS activity resulting from the mutant ALS protein contained in the eluted fractions apportioned into each test tube for apportion was measured as follows. A reaction solution to be used in a measurement reaction was prepared by mixing an eluted fraction to be measured with a solution comprising 20 mM sodium pyruvate, 0.5 mM TPP, 0.5 mM MgCl2, 10 μM FAD and 20 mM potassium phosphate buffer (pH 7.5). […] After the eluted fraction to be measured was added, the measurement reaction was performed at 30° C. for 40 to 60 min. […]
Then, to quantify acetoin contained in the reaction solution, 1 ml of 0.5% (w/v) creatine and 1 ml of 5% (w/v) α-naphthol dissolved in 2.5 N sodium hydroxide was added to the reaction solution, followed by incubation at 37° C. for 10 min. Acetoin was then quantified by color comparison of the absorbance (at 525 nm) of the reaction solution, thereby evaluating ALS activity. […]

| SMILES | IC50 (wild type ALS protein) [nM] | IC50 (mutant ALS protein) [nM] |
| --- | --- | --- |
| COc1cc(OC)nc(Oc2cccc(Oc3nc(OC)cc(OC)n3)c2C(=O)[O-])n1.[Na+] [Bispyribac-sodium, bispyribac-sodium] | 5.63 | 421 |
| COc1nc(C)nc(NC(=O)NS(=O)(=O)c2ccccc2Cl)n1 [Chlorsulfuron, chlorsulfuron] | 17.3 | 92.8 |

Reference: US7119256B2, “Gene encoding acetolactate synthase” (priority 2000, dated 2006)
